# Data: the supplement of paper PMC10307832
# Compound: NC(=O)c1ccc(N(C(N)=O)c2c(F)cccc2F)nc1-c1ccc(F)cc1F [VX-702] + N=C(N)NC(=N)NCCc1ccccc1 [Phenformin] (partner 250 µM)
# Assay: relative viability (nuclei count vs DMSO), 5 days (fraction); higher = more cells survive
# Details: first compound 0.02 µM
# Outline: (§1)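 Five library-drug doses in √10 steps were combined with a fixed anchor-drug dose, or a single drug was given alone, by pin tool to lung cancer cell lines in 1536-well plates the day after seeding. Nuclei were stained and counted after 5 days. Relative viability is the nuclei count in treated wells over that in vehicle wells, taken as the median of duplicate plates.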
row,Cell Line,relative viability
1,NCI-H1437,0.326
2,RERF-LC-KJ,0.401
3,NCI-H1734,0.403
4,BEN,0.263
5,NCI-H460,0.532
6,H3255,0.352
7,SK-LU-1,0.636
8,NCI-H1793,0.284
9,NCI-H23,0.787
10,SW 1573,0.364
11,NCI-H838,0.607
12,NCI-H2342,0.594
13,EPLC-272H,0.303
14,NCI-H3122,0.409
15,NCI-H1915,0.366
16,NCI-H727,0.618
17,NCI-H1975,0.432
18,LK-2,0.38
19,HCC-366,0.594
20,NCI-H2087,0.481
21,LCLC-97TM1,0.439
22,NCI-H661,0.296
23,NCI-H2405,0.457
24,NCI-H1993,0.498
25,PC-3 [JPC-3],0.484
26,NCI-H2009,0.572
27,NCI-H2347,0.574
28,NCI-H520,0.67
29,LXF-289,0.538
30,NCI-H358,0.318

# Same assay, conditions: first compound 0.2 µM
row,Cell Line,relative viability
1,NCI-H1437,0.352
2,RERF-LC-KJ,0.449
3,NCI-H1734,0.355
4,BEN,0.252
5,NCI-H460,0.551
6,H3255,0.344
7,SK-LU-1,0.508
8,NCI-H1793,0.331
9,NCI-H23,0.77
10,SW 1573,0.261
11,NCI-H838,0.609
12,NCI-H2342,0.686
13,EPLC-272H,0.302
14,NCI-H3122,0.388
15,NCI-H1915,0.374
16,NCI-H727,0.607
17,NCI-H1975,0.413
18,LK-2,0.478
19,HCC-366,0.62
20,NCI-H2087,0.445
21,LCLC-97TM1,0.434
22,NCI-H661,0.329
23,NCI-H2405,0.437
24,NCI-H1993,0.493
25,PC-3 [JPC-3],0.491
26,NCI-H2009,0.56
27,NCI-H520,0.648
28,LXF-289,0.534
29,NCI-H358,0.293

# Same assay, conditions: first compound 0.6325 µM
row,Cell Line,relative viability
1,NCI-H1437,0.31
2,RERF-LC-KJ,0.369
3,NCI-H1734,0.369
4,BEN,0.228
5,NCI-H460,0.608
6,H3255,0.371
7,SK-LU-1,0.524
8,NCI-H1793,0.415
9,NCI-H23,0.884
10,SW 1573,0.282
11,NCI-H838,0.557
12,NCI-H2342,0.58
13,EPLC-272H,0.381
14,NCI-H3122,0.44
15,NCI-H1915,0.363
16,NCI-H727,0.568
17,NCI-H1975,0.413
18,LK-2,0.354
19,HCC-366,0.679
20,NCI-H2087,0.422
21,LCLC-97TM1,0.43
22,NCI-H661,0.298
23,NCI-H2405,0.385
24,NCI-H1993,0.518
25,PC-3 [JPC-3],0.457
26,NCI-H2009,0.577
27,NCI-H2347,0.395
28,NCI-H520,0.525
29,LXF-289,0.5
30,NCI-H358,0.289

# Same assay, conditions: first compound 2 µM
row,Cell Line,relative viability
1,NCI-H1437,0.313
2,RERF-LC-KJ,0.517
3,NCI-H1734,0.298
4,BEN,0.236
5,NCI-H460,0.373
6,H3255,0.386
7,SK-LU-1,0.531
8,NCI-H1793,0.358
9,NCI-H23,0.875
10,SW 1573,0.327
11,NCI-H838,0.669
12,NCI-H2342,0.719
13,EPLC-272H,0.26
14,NCI-H3122,0.424
15,NCI-H1915,0.384
16,NCI-H727,0.499
17,NCI-H1975,0.418
18,LK-2,0.387
19,HCC-366,0.5
20,NCI-H2087,0.528
21,LCLC-97TM1,0.482
22,NCI-H661,0.299
23,NCI-H2405,0.401
24,NCI-H1993,0.562
25,PC-3 [JPC-3],0.464
26,NCI-H2009,0.617
27,NCI-H2347,0.425
28,NCI-H520,0.535
29,LXF-289,0.527
30,NCI-H358,0.429

# Compound: CC(C)(C)c1nc(-c2cccc(NS(=O)(=O)c3c(F)cccc3F)c2F)c(-c2ccnc(N)n2)s1 [Dabrafenib] + COc1cccc2cc(-c3nc([C@H]4CC[C@H](C(=O)O)CC4)n4ncnc(N)c34)[nH]c12 [OSI-027] (partner 0.5 µM)
# Assay: as above
# Details: first compound 0.003 µM
# Outline: as §1
row,Cell Line,relative viability
1,NCI-H1437,0.926
2,RERF-LC-KJ,0.565
3,NCI-H460,0.641
4,H3255,0.572
5,SW 1573,0.463
6,NCI-H838,0.339
7,NCI-H2342,0.532
8,EPLC-272H,0.234
9,NCI-H3122,0.919
10,NCI-H1915,0.572
11,NCI-H1975,0.657
12,LK-2,0.174
13,HCC-366,0.109
14,LCLC-97TM1,0.308
15,NCI-H661,0.785
16,NCI-H1993,0.468
17,PC-3 [JPC-3],0.629
18,NCI-H2009,0.423
19,NCI-H520,0.272
20,LXF-289,0.337
21,NCI-H358,0.486

# Same assay, conditions: first compound 0.009487 µM
row,Cell Line,relative viability
1,NCI-H1437,0.849
2,RERF-LC-KJ,0.767
3,NCI-H1734,0.655
4,BEN,0.332
5,NCI-H460,0.651
6,H3255,0.579
7,SK-LU-1,0.366
8,NCI-H1793,0.393
9,NCI-H23,0.602
10,SW 1573,0.61
11,NCI-H838,0.483
12,NCI-H2342,0.548
13,EPLC-272H,0.371
14,NCI-H3122,0.967
15,NCI-H1915,0.565
16,NCI-H727,0.395
17,NCI-H1975,0.728
18,LK-2,0.238
19,HCC-366,0.988
20,NCI-H2087,0.541
21,LCLC-97TM1,0.535
22,NCI-H661,0.709
23,NCI-H2405,0.696
24,NCI-H1993,0.498
25,PC-3 [JPC-3],0.84
26,NCI-H2009,0.617
27,NCI-H2347,0.514
28,NCI-H520,0.348
29,LXF-289,0.819
30,NCI-H358,0.923

# Same assay, conditions: first compound 0.03 µM
row,Cell Line,relative viability
1,NCI-H1437,1.04
2,RERF-LC-KJ,0.615
3,NCI-H1734,0.471
4,NCI-H460,0.629
5,H3255,0.62
6,SK-LU-1,0.217
7,NCI-H23,0.471
8,SW 1573,0.525
9,NCI-H838,0.388
10,NCI-H2342,0.504
11,EPLC-272H,0.31
12,NCI-H3122,1.07
13,NCI-H1915,0.486
14,NCI-H727,0.677
15,NCI-H1975,0.805
16,LK-2,0.155
17,HCC-366,0.501
18,NCI-H2087,0.682
19,LCLC-97TM1,0.683
20,NCI-H661,0.676
21,NCI-H1993,0.433
22,PC-3 [JPC-3],0.771
23,NCI-H2009,0.321
24,NCI-H2347,0.254
25,NCI-H520,0.188
26,LXF-289,0.751
27,NCI-H358,0.74

# Same assay, conditions: first compound 0.09487 µM
row,Cell Line,relative viability
1,NCI-H1437,0.922
2,RERF-LC-KJ,0.68
3,NCI-H1734,0.496
4,BEN,0.305
5,NCI-H460,0.591
6,H3255,0.56
7,SK-LU-1,0.285
8,NCI-H23,0.435
9,SW 1573,0.623
10,NCI-H838,0.405
11,NCI-H2342,0.715
12,EPLC-272H,0.258
13,NCI-H3122,0.925
14,NCI-H1915,0.37
15,NCI-H727,0.568
16,NCI-H1975,0.535
17,LK-2,0.248
18,HCC-366,0.773
19,NCI-H2087,0.622
20,LCLC-97TM1,0.237
21,NCI-H661,0.682
22,NCI-H2405,0.548
23,NCI-H1993,0.565
24,PC-3 [JPC-3],0.705
25,NCI-H2009,0.249
26,NCI-H2347,0.394
27,NCI-H520,0.324
28,LXF-289,0.783
29,NCI-H358,0.576

# Same assay, conditions: first compound 0.3 µM
row,Cell Line,relative viability
1,NCI-H1437,0.878
2,RERF-LC-KJ,0.731
3,NCI-H1734,0.502
4,BEN,0.269
5,NCI-H460,0.534
6,H3255,0.583
7,SK-LU-1,0.227
8,NCI-H1793,0.309
9,NCI-H23,0.486
10,SW 1573,0.548
11,NCI-H838,0.412
12,NCI-H2342,0.737
13,EPLC-272H,0.249
14,NCI-H3122,1.06
15,NCI-H1915,0.381
16,NCI-H727,0.643
17,NCI-H1975,0.581
18,LK-2,0.206
19,HCC-366,1.08
20,NCI-H2087,0.454
21,LCLC-97TM1,0.237
22,NCI-H661,0.675
23,NCI-H2405,0.626
24,NCI-H1993,0.56
25,PC-3 [JPC-3],0.801
26,NCI-H2009,0.251
27,NCI-H2347,0.416
28,NCI-H520,0.278
29,LXF-289,0.856
30,NCI-H358,0.655

# Compound: CC(C)(C)c1nc(-c2cccc(NS(=O)(=O)c3c(F)cccc3F)c2F)c(-c2ccnc(N)n2)s1 [Dabrafenib] + N=C(N)NC(=N)NCCc1ccccc1 [Phenformin] (partner 250 µM)
# Assay: as above
# Details: first compound 0.003 µM
# Outline: as §1
row,Cell Line,relative viability
1,NCI-H1437,0.2
2,RERF-LC-KJ,0.432
3,NCI-H460,0.523
4,H3255,0.345
5,SW 1573,0.371
6,NCI-H838,0.564
7,NCI-H2342,0.444
